Assays:
Assay type in all cases: cell-based, mouse
[1] = system: Nanog; assay: Immunofluorescence staining, Nanog in iPS cells; conditions: 72 hours, control group = 100%
Source text: Nanog and SSEA1 are also marker proteins of stem cells, and their expression levels could be measured by immunofluorescence staining to further confirm whether BP can effectively maintain the self-renewal and pluripotency of stem cells.
An experimental group medium (BP5, BP10, BP20 or BP40), a LIF-containing medium (without BP), and a control group medium (without BP) were used respectively in a 6-well culture dish which comprises a slide in each well to culture ES cells with an initial density of 1×10^4 per well for 72 hours. The medium was removed and the cells were washed with PBS. Next, PBS was removed, and then 4% paraformaldehyde was added to perform the fixation at room temperature for 10 minutes. Next, paraformaldehyde was removed, and then slides were washed with 0.1% Tween-20/1X PBS three times for 10 minutes each time. The 0.3% Tween-20/1X PBS was added and held at room temperature for 30 minutes to penetrate the cell membrane to benefit the dye entry. After the slides were washed three times with 0.1% Tween-20, 5% FBS/1×PBS was added to perform a blocking reaction at room temperature for 2 hours, and then reacting with the primary antibody [anti-Nanog (Novus) or anti-SSEA1 (Millipore)] at a dilution of 1:100 at room temperature overnight. Slides were then washed 5 times with 0.1% Tween-20, then reacting with the secondary antibody [FITC-conjugated anti-mouse IgG or TRITC-conjugated anti-rabbit IgG (Sigma-Aldrich)] at a dilution of 1:500. After washed with 0.1% Tween-20 for 10 minutes, slides were mounted with the DAPI-containing UltraCruz™ Mounting medium and observed using an inverted fluorescent microscope.
(§1) By using the above culture conditions, an experimental group medium (BP5, BP10, BP20 or BP40), a LIF-containing medium (without BP), and a control group medium (without BP) were used respectively to culture iPS cells. The staining of iPS cells was performed by using the steps described above.

[2] = system: iPS cells; assay: Alkaline phosphatase staining of iPS cells; conditions: 72 hours, control group = 100%
Protocol: The protocol shown in experiment A was repeated, while an iPS cell (received from Riken Research Center, Japan) was cultured at step (4).
The protocol shown in experiment C was repeated, while an iPS cell (received from Riken Research Center, Japan) was cultured at step (2).
Alkaline phosphatase is a marker protein of stem cells. The activity measured by staining could be used to determine if BP can effectively maintain the self-renewal and/or pluripotency of stem cells.
An experimental group medium (BP5, BP10, BP20 or BP40), a LIF-containing medium (without BP) and a control group medium (without BP) were used respectively to culture ES cells in a 6-well culture dish with an initial density of 1×10^4 per well for 72 hours. The medium was removed and the cells were washed two times with PBS. Next, PBS was removed, and 1 ml of 80% ethanol was added into each well to perform the fixation at 4° C. for 2 to 24 hours. Next, ethanol was removed, and then the cells were washed one time with distilled water. The distilled water was added again to soak the cells for 2 to 3 minutes, and then be removed. Next, the cells were soaked with a Tris-HCl buffer (100 mM, pH 8.2 to 8.5) at room temperature for 5 minutes, and then, the buffer was removed. Next, a Leukocyte Alkaline Phosphatase kit (Vector) was used to perform the staining for 20 to 30 minutes, and then the Alkaline Phosphatase Substrate working solution was removed, the cells were soaked and washed by Tris-HCl buffer (100 mM, pH 8.2 to 8.5) and then be observed by a fluorescent microscope to count the number of the AP-positive clones. The undifferentiated ES cells with a higher activity show a red color, while the differentiated ES cells with a lower activity show a weak red color or are even colorless.
as §1, with “Then, the” for “The”, “by” for “by using”, “above. The undifferentiated iPS cells with a higher activity show a red color and the differentiated iPS cells with a lower activity show a weak red color or are even colorless.” for “above.”

[3] = system: Jak2; assay: Western blot assay, Jak2 protein in ES cells; conditions: for Jak2 Protein expression level: ES cells, control group = 100%
Source text: According to the known research at present, Jak2 and Stat3 proteins could be phosphorylated to form the active forms, and the Jak2-Stat3 signaling pathway will be activated when Jak2 and Stat3 were phosphorylated.
An experimental group medium (BP5 or BP10), a LIF-containing medium (without BP), and a control group medium (without BP) were used respectively to culture ES cells with an initial density of 1×10^4 per well in a 6-well culture dish. The medium was removed until the cells growth to be about 70 to 80% confluence. The proteins were extracted to conduct the Western blot assay by using rabbit anti-Jak2 antibody (Cell Signaling Technology), mouse anti-phospho-Jak2 antibody (Cell Signaling Technology), rabbit anti-Stat3 antibody (BD) and rabbit anti-phospho-Stat3 antibody (Cell Signaling Technology), to determine whether BP would affect the protein expression levels of the genes in the Jak-Stat3 signaling pathway.

[4] = BP10 medium (about 10 μg BP/ml)
[5] = BP20 medium (about 20 μg BP/ml)
[6] = BP40 medium (about 40 μg BP/ml)
[7] = LIF-containing medium (LIF 4 ng/ml, without BP)

| Compound | Nanog expression level ([1]; BP5 medium (about 5 μg BP/ml)) [%] | Nanog expression level [1, 4] [%] | Nanog expression level [1, 5] [%] | Nanog expression level [1, 6] [%] | AP-positive clones ([2]; BP5 medium (about 5 μg BP/ml)) [%] | AP-positive clones [2, 4] [%] | AP-positive clones [2, 5] [%] | AP-positive clones [2, 6] [%] | Jak2 Protein expression level ([3]; BP5 medium (about 5 μg BP/ml)) [%] | Jak2 Protein expression level [3, 4] [%] | total protein expression and phosphorylated protein expression level of Jak2 ([3]; ES cell medium containing BP, result in words) | Nanog expression level [1, 7] [%] | AP-positive clones [2, 7] [%] | Jak2 Protein expression level [3, 7] [%] |
| --- | --- | --- | --- | --- | --- | --- | --- | --- | --- | --- | --- | --- | --- | --- |
| CCCC=C1OC(=O)c2ccccc21 [BP, n-butylidenephthalide] | 142 | 305 | 358 | 442 | 85 | 128 | 192 | 129 | 109 | 134 | increased significantly |  |  |  |
| LIF: multifunctional cell factor used to maintain pluripotency of stem cells; LIF-containing medium (4 ng/ml, without BP) as comparison |  |  |  |  |  |  |  |  |  |  |  | 386 | 226 | 62 |

Source: patent US20150056702A1, “METHOD AND KIT FOR CULTURING STEM CELLS” (China Medical University, priority 2013, published 2015)
